Measured values published in patent US9187450B2, “Substituted pyridine compound” (Daiichi Sankyo Company, Limited, priority 2010, dated 2015).

Target: recombinant human CETP protein (Homo sapiens (Human), UniProt P11597)
Experiment: Test of CETP inhibition activity (in vitro, buffer-based)
Format: biochemical
Conditions: reconstituted HDL with [14C]-labeled cholesteryl ester, acceptor lipoprotein, 37° C.
Outline: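 Reconstituted HDL carrying [14C]-cholesteryl ester served as donor and plasma IDL/LDL (density 1.019–1.063) as acceptor, with 4.5 ng recombinant CETP in PBS pH 7.4. Compound (DMSO stocks 0.15–500 μM) was preincubated with CETP and acceptor for 60 min at 37 °C, then reacted with donor for 60 min. HDL-fraction radioactivity after MgCl2/dextran sulfate precipitation gave % inhibition and IC50.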

Sequence of recombinant human CETP protein (P11597 18-493): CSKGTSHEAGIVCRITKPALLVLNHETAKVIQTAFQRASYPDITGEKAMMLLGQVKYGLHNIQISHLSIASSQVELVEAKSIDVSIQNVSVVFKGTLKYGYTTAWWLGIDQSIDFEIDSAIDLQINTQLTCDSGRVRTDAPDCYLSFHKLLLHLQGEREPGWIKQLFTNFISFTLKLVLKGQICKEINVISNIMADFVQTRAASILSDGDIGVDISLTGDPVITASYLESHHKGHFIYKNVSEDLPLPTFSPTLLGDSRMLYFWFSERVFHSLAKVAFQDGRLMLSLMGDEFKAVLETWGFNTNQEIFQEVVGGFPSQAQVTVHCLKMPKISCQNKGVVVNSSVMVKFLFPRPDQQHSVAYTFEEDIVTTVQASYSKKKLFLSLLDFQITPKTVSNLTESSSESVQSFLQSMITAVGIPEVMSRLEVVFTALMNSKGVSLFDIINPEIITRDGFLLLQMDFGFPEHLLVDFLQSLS

Compound	IC50 [nM]
CN(CCO)c1cnc(N2CCC(c3nc4c(c(C5CCC(F)(F)CC5)c3[C@@H](F)c3ccc(C(F)(F)F)cc3)[C@@H](O)CC(C)(C)C4)CC2)nc1 (single isomer, unassigned) [Example 56, 4-(4,4-Difluorocyclohexyl)-3-{fluoro[4-(trifluoromethyl)phenyl]methyl}-2-(1-{5-[(2-hydroxyethyl)(methyl)amino]pyrimidin-2-yl}piperidin-4-yl)-7,7-dimethyl-5,6,7,8-tetrahydroquinolin-5-ol]	28
CC1(C)Cc2nc(C3CCN(c4ncc(O)cn4)CC3)c([C@@H](F)c3ccc(C(F)(F)F)cc3)c(C3CCC(F)(F)CC3)c2[C@@H](O)C1 (single isomer, unassigned) [Example 4, (−)-4-(4,4-Difluorocyclohexyl)-3-{fluoro[4-(trifluoromethyl)phenyl]methyl}-2-[1-(5-hydroxypyrimidin-2-yl)piperidin-4-yl]-7,7-dimethyl-5,6,7,8-tetrahydroquinolin-5-ol]	73
CC1(C)Cc2nc(C3CCN(c4ncc(OCCCCC(=O)O)cn4)CC3)c([C@@H](F)c3ccc(C(F)(F)F)cc3)c(C3CCC(F)(F)CC3)c2[C@@H](O)C1 (single isomer, unassigned) [Example 23, (−)-2-{1-[5-(4-Carboxybutoxyl)pyrimidin-2-yl]piperidin-4-yl}-4-(4,4-difluorocyclohexyl)-3-{fluoro[4-(trifluoromethyl)phenyl]methyl}-7,7-dimethyl-5,6,7,8-tetrahydroquinolin-5-ol]	37
CC1(C)Cc2nc(C3CCN(c4ncc(OCC(C)(CO)CO)cn4)CC3)c([C@@H](F)c3ccc(C(F)(F)F)cc3)c(C3CCC(F)(F)CC3)c2[C@@H](O)C1 (single isomer, unassigned) [Example 50, (−)-4-(4,4-Difluorocyclohexyl)-3-{fluoro[4-(trifluoromethyl)phenyl]methyl}-2-(1-{5-[3-hydroxy-2-(hydroxymethyl)-2-methylpropoxy]pyrimidin-2-yl}piperidin-4-yl)-7,7-dimethyl-5,6,7,8-tetrahydroquinolin-5-ol]	13
CC1(C)Cc2nc(C3CCN(c4ncc(CCCC(F)(F)F)cn4)CC3)c([C@@H](F)c3ccc(C(F)(F)F)cc3)c(C3CCC(F)(F)CC3)c2[C@@H](O)C1 (single isomer, unassigned) [Example 33, 4-(4,4-Difluorocyclohexyl)-3-{fluoro[4-(trifluoromethyl)phenyl]methyl}-7,7-dimethyl-2-{1-[5-(4,4,4-trifluorobutyl)pyrimidin-2-yl]piperidin-4-yl}-5,6,7,8-tetrahydroquinolin-5-ol]	48
CC1(C)Cc2nc(C3CCN(c4ncc(OCCC(F)(F)F)cn4)CC3)c([C@@H](F)c3ccc(C(F)(F)F)cc3)c(C3CCC(F)(F)CC3)c2[C@@H](O)C1 (single isomer, unassigned) [Example 47, (−)-4-(4,4-Difluorocyclohexyl)-3-{fluoro[4-(trifluoromethyl)phenyl]methyl}-7,7-dimethyl-2-{1-[5-(3,3,3-trifluoropropoxyl)pyrimidin-2-yl]piperidin-4-yl}-5,6,7,8-tetrahydroquinolin-5-ol]	31
CN(C)C(=O)c1cnc(N2CCC(c3nc4c(c(C5CCC(F)(F)CC5)c3[C@@H](F)c3ccc(C(F)(F)F)cc3)[C@@H](O)CC(C)(C)C4)CC2)nc1 (single isomer, unassigned) [Example 31, (−)-4-(4,4-Difluorocyclohexyl)-2-{1-[5-(dimethylcarbamoyl)pyrimidin-2-yl]piperidin-4-yl}-3-{fluoro[4-(trifluoromethyl)phenyl]methyl}-7,7-dimethyl-5,6,7,8-tetrahydroquinolin-5-ol]	29
CC(C)CCOc1cnc(N2CCC(c3nc4c(c(C5CCC(F)(F)CC5)c3[C@@H](F)c3ccc(C(F)(F)F)cc3)[C@@H](O)CC(C)(C)C4)CC2)nc1 (single isomer, unassigned) [Example 22, (−)-4-(4,4-difluorocyclohexyl)-3-{fluoro[4-(trifluoromethyl)phenyl]methyl}-7,7-dimethyl-2-{1-[5-(3-methylbutoxyl)pyrimidine-2-yl]piperidin-4-yl}-5,6,7,8-tetrahydroquinoline-5-ol]	111
CC1(C)Cc2nc(C3CCN(c4ncc(OCCCO)cn4)CC3)c([C@@H](F)c3ccc(C(F)(F)F)cc3)c(C3CCC(F)(F)CC3)c2[C@@H](O)C1 [Example 46, (−)-4-(4,4-Difluorocyclohexyl)-3-{fluoro[4-(trifluoromethyl)phenyl]methyl}-2-{1-[5-(3-hydroxypropoxy)pyrimidin-2-yl]piperidin-4-yl}-7,7-dimethyl-5,6,7,8-tetrahydroquinolin-5-ol]	16

Second part, the compound after the results:

IC50 [nM]	Compound
32	CC1(C)Cc2nc(C3CCN(c4ncc(S(C)(=O)=O)cn4)CC3)c([C@@H](F)c3ccc(C(F)(F)F)cc3)c(C3CCC(F)(F)CC3)c2[C@@H](O)C1 (single isomer, unassigned) [Example 54, (−)-4-(4,4-Difluorocyclohexyl)-3-{fluoro[4-(trifluoromethyl)phenyl]methyl}-7,7-dimethyl-2-{1-[5-(methylsulphonyl)pyrimidin-2-yl]piperidin-4-yl}-5,6,7,8-tetrahydroquinolin-5-ol]
33	CC1(C)Cc2nc(C3CCN(c4ncc(N5CC[C@H](O)C5)cn4)CC3)c([C@@H](F)c3ccc(C(F)(F)F)cc3)c(C3CCC(F)(F)CC3)c2[C@@H](O)C1 (single isomer, unassigned) [Example 57]
243	CCCCCc1cnc(N2CCC(c3nc4c(c(C5CCC(F)(F)CC5)c3[C@@H](F)c3ccc(C(F)(F)F)cc3)[C@@H](O)CC(C)(C)C4)CC2)nc1 (single isomer, unassigned) [Example 16, (−)-4-(4,4-Difluorocyclohexyl)-3-{fluoro[4-(trifluoromethyl)phenyl]methyl}-7,7-dimethyl-2-[1-(5-pentylpyrimidin-2-yl)piperidin-4-yl]-5,6,7,8-tetrahydroquinolin-5-ol]
40	COCc1cnc(N2CCC(c3nc4c(c(C5CCC(F)(F)CC5)c3[C@@H](F)c3ccc(C(F)(F)F)cc3)[C@@H](O)CC(C)(C)C4)CC2)nc1 (single isomer, unassigned) [Example 27, (−)-4-(4,4-Difluorocyclohexyl)-3-{fluoro[4-(trifluoromethyl)phenyl]methyl}-2-{1-[5-(methoxymethyl)pyrimidin-2-yl]piperidin-4-yl}-7,7-dimethyl-5,6,7,8-tetrahydroquinolin-5-ol]
62	CC(C)COCc1cnc(N2CCC(c3nc4c(c(C5CCC(F)(F)CC5)c3[C@@H](F)c3ccc(C(F)(F)F)cc3)[C@@H](O)CC(C)(C)C4)CC2)nc1 (single isomer, unassigned) [Example 29, (−)-4-(4,4-Difluorocyclohexyl)-3-{fluoro[4-(trifluoromethyl)phenyl]methyl}-7,7-dimethyl-2-(1-{5-[(2-methylpropoxy)methyl]pyrimidin-2-yl}piperidin-4-yl)-5,6,7,8-tetrahydroquinolin-5-ol]
